Assay results reported in US20050181459A1, “Method for mapping and eliminating T cell epitopes” (priority 2002, published 2005).
Where no end group is shown, it is not given here.

Legend:
PBMC = test: T cell activation assay (time course) of IFNα peptides, PBMC from 20 healthy donors and 20 IFN α2b-treated HCV patients; assay type: cell-based, human; details: 20 healthy donors and 20 HCV patients previously treated with IFN α2b; 6-9 days culture; 3H-thymidine
[1] = Solubility of IFNα peptides; assay type: physicochemical; details: in the T cell assay of Example 6

Row | solubility of peptide [1] | Sequence | percentage of donors whose PBMC responded to a peptide (SI greater than about 1.95) (PBMC) [%]
1 |  | SLFSCLKDRHDFGFP (Potential T-cell Epitopes) [compound 9] | 15
2 | insoluble | EMIQQIFNLFSTKDS [compound 20, EMIQQIFNLFSTKDS] | 
3 |  | SILAVRKYFQRITLY (Potential T-cell Epitopes) [peptide 39] | 25
4 | insoluble | VLHEMIQQIFNLFST [compound 19, VLHEMIQQIFNLFST] | 
5 |  | KEDSILAVRKYFQRI (Potential T-cell Epitopes) [compound 38] | 15
6 |  | RRISLFSCLKDRHDF (Potential T-cell Epitopes) [compound 8] | 15
7 |  | FNLFSTKDSSAAWDE (Potential T-cell Epitopes) [peptide 22] | 15
